What was measured:
Format in all cases: cell-based
[1] = system: variants of SARS-CoV-2 (B1.1.7, B.1.351, B.1.617.2, and B.1.617.1); details: for prevention of infection of all clades: alone at their highest doses; for reduction of SARS-CoV-2 infection in all lineages: alone or in combination, lowest given concentration
B.1.617 (κ-variant) = test: SARS-CoV-2 inhibition assay in Vero E6 cells, B.1.617; details: 0.99 μM
B.1.351 (β-variant) = test: SARS-CoV-2 inhibition assay in Vero E6 cells, B.1.351; details: 0.99 μM
B.1.617.2 (δ-variant) = test: SARS-CoV-2 inhibition assay in Vero E6 cells, B.1.617.2; details: 0.99 μM
B.1.1.7 (α-variant) = test: SARS-CoV-2 inhibition assay in Vero E6 cells, B.1.1.7; details: 0.99 μM

For `CC#CCn1c(N2CCC[C@@H](N)C2)nc2c1c(=O)n(Cc1nc(C)c3ccccc3n1)c(=O)n2C` [Linagliptin, linagliptin], the “inhibitory effectiveness against all VOCs” value [1] was “dose-dependent inhibitory effectiveness”, the “prevention of infection of all clades” value [1] was “entirely prevent the infection of all clades” and the “reduction of SARS-CoV-2 infection in all lineages” value [1] was 6–10 folds.

With `N[C@@H](CC(=O)N1CCn2c(nnc2C(F)(F)F)C1)Cc1cc(F)c(F)cc1F` [Sitagliptin, sitagliptin] the “effect on κ-SARS-CoV-2 growth” value (B.1.617 (κ-variant)) was “partially inhibit”, the “inhibition of viral growth among all variants” value ([1]; 1.98 μM) was 6–7 folds and the “prevention of infection of all clades” value [1] was “entirely prevent the infection of all clades”. For the same compound, the “reduction of SARS-CoV-2 infection in all lineages” value [1] was 6–10 folds, the “effect on β-SARS-CoV-2 growth” value (B.1.351 (β-variant)) was “partially inhibit” and the “effect on δ-SARS-CoV-2 growth” value (B.1.617.2 (δ-variant)) was “unable to prevent even the partial growth”. The “effect on α-SARS-CoV-2 growth” value (B.1.1.7 (α-variant)) was “partially inhibit”.
